Molecular target: Phosphatidylinositol 4,5-bisphosphate 3-kinase catalytic subunit alpha isoform (Homo sapiens, UniProt P42336)
Test: Biological Assays: The efficacy of compounds of the invention in inhibiting the PI3K induced-lipid phosphorylation may be tested in the following binding assay. The assay combines the scintillation proximity assay technology (SPA, Amersham) with the capacity of neomycin (a polycationic antibiotic) to bind phospholipids with high affinity and specificity. The Scintillation Proximity Assay is based on the properties of weakly emitting isotopes (such as 3H, 125I, 33P). Coating SPA beads with neomycin allows the detection of phosphorylated lipid substrates after incubation with recombinant PI3K and radioactive ATP in the same well, by capturing the radioactive phospholipids to the SPA beads through their specific binding to neomycin.

Chain of Phosphatidylinositol 4,5-bisphosphate 3-kinase catalytic subunit alpha isoform (P42336 whole entry, canonical isoform): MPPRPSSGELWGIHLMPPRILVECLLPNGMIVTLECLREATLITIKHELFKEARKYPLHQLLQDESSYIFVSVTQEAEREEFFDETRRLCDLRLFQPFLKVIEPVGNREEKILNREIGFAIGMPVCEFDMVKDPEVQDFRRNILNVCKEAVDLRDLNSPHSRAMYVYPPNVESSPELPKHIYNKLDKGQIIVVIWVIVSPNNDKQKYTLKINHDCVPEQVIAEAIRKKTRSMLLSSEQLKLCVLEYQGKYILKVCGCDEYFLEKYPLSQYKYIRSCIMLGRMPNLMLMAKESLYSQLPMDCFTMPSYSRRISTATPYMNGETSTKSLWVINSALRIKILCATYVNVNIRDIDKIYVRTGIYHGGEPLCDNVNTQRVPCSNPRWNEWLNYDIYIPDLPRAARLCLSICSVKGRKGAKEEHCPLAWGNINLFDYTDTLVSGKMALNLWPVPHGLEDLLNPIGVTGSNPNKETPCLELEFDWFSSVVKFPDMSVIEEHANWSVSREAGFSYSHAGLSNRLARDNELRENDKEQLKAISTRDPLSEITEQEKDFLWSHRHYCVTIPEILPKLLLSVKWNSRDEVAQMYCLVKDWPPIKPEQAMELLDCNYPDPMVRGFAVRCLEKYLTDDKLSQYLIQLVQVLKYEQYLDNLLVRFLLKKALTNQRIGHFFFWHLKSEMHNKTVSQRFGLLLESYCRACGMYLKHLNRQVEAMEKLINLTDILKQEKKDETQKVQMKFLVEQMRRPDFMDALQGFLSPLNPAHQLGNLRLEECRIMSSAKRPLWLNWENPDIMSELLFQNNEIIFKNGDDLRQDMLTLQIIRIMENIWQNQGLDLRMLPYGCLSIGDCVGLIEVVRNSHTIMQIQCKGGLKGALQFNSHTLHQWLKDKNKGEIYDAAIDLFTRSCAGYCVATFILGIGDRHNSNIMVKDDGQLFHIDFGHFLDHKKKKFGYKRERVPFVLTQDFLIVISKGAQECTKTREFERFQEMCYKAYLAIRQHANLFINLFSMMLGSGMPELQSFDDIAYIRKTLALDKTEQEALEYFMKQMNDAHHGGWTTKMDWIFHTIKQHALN

O=C(O)c1cc(-c2cccc3ccccc23)c2nc(N3CCOCC3)nc(-c3cccc(O)c3)c2n1
IC50: 0.057 µM

From ChEMBL document CHEMBL3639272, “2-morpholino-pyrido[3,2-D]pyrimidines” (2013)
